Test results from publication PMC12785511, “Integrative Profiling for BBB Permeability Using Capillary Electrochromatography, Experimental Physicochemical Parameters, and Ensemble Machine Learning” (International Journal of Molecular Sciences, 2025).
Read-outs that look alike come from different tables or passages of the source.

Key:
[1] = cited from earlier work
[2] = open-tubular capillary electrochromatography (CEC), permeability k′ parameter; format: in vitro ADME; conditions: pH 7.4 HEPES buffer 40 mM, migration times in coated and uncoated capillary, mean ± SD of three independent experiments
[3] = Sirius T3 automated potentiometric (pH-metric) titrations, pKa; conditions: ionic strength adjusted (ISA) water ([…] KCl)
[4] = Sirius T3 automated potentiometric titrations with n-octanol, log P / log D; conditions: for logP / logD: n-octanol/water; for Log D7.4: calculated based on the experimentally obtained pKa and log P data
physchem = conditions: for logD: pH 7.4
[5] = experimental in vivo measurements from rats, data retrieved from literature
[6] = pKa ± SD, […] ISA water or Yasuda–Shedlovsky extrapolation from methanol cosolvent, value used for regression

Compound | Log BB [1, 5] | k′ ± SD (CEC) [2] | pKa [3, 6] | logP [4] | logD ([4]; pH 7.4) | further results
CN1CCN2c3ccccc3Cc3ccccc3C2C1 (stereo not drawn) [mianserin] | 0.99 | −0.02148 ± 0.00155 | 7.25 ± 0.03 | 3.74 ± 0.01 | 3.5 | –
S=C(NC1CCCCC1)N1CCC(c2cnc[nH]2)CC1 [thioperamide] | −0.16 | 0.01849 ± 0.00363 | – | – | – | logD (physchem): 2.27
CN1CCN(C2=Nc3cc(Cl)ccc3Nc3ccccc32)CC1 [clozapine] | 0.60 | 0.00693 ± 0.00245 | – | 3.92 ± 0.1 | 3.52 | –
CCN(CC)CCNC(=O)c1cc(Cl)c(N)cc1OC [metoclopramide] | 0.08 | −0.00563 ± 0.00136 | – | – | – | –
CN1[C@@H]2CC[C@H]1C[C@@H](OC(=O)C(CO)c1ccccc1)C2 (stereo partly drawn) [atropine] | – | 0.0044 ± 0.00309 | – | – | – | –
CN(C)CCCC1(c2ccc(F)cc2)OCc2cc(C#N)ccc21 (stereo not drawn) [citalopram] | 0.48 | 0.00405 ± 0.00229 | – | – | – | –
CCN(C)C(=O)Oc1cccc([C@H](C)N(C)C)c1 [rivastigmine] | – | −0.00018 ± 0.00009 | – | – | – | logD (physchem): 0.66
Cc1cn([C@H]2C[C@H](N=[N+]=[N-])[C@@H](CO)O2)c(=O)[nH]c1=O [zidovudine] | – | 0.00428 ± 0.00056 | 9.51 | 0.09 ± 0.01 | 0.09 | –
CN(C)CCCN1c2ccccc2Sc2ccc(Cl)cc21 [chlorpromazine] | – | – | 9.07 ± 0.01 | 5.1 ± 0.03 | 3.43 | –
CC(C)Cc1ccc(C(C)C(=O)O)cc1 (stereo not drawn) [ibuprofen] | – | −0.0369 ± 0.00011 | – | 3.8 | 1.07 | –
Fc1ccc([C@@H]2CCNC[C@H]2COc2ccc3c(c2)OCO3)cc1 [paroxetine] | 0.48 | 0.02144 ± 0.00689 | 9.76 ± 0.08 | 3.39 ± 0.04 | – | –
O=C(CCCN1CCC(O)(c2ccc(Br)cc2)CC1)c1ccc(F)cc1 [bromperidol] | 1.38 | −0.00795 ± 0.00034 | 8.45 ± 0.1 | 3.87 ± 0.05 | 2.81 | –
CN(C)CCCN1c2ccccc2Sc2ccccc21 [promazine] | 1.23 | −0.01399 ± 0.00228 | 9.39 | 4.54 | 2.55 | logD ([4]; pH 1): 0.83; logD ([4]; pH 1.2): 0.83; logD ([4]; pH 2): 0.83; logD ([4]; pH 3): 0.83; logD ([4]; pH 4): 0.84; logD ([4]; pH 5): 0.91; logD ([4]; pH 6): 1.32; logD ([4]; pH 6.5): 1.71; logD ([4]; pH 7): 2.17; logD ([4]; pH 8): 3.14; logD ([4]; pH 9): 4; logD ([4]; pH 10): 4.45; logD ([4]; pH 11): 4.53; logD ([4]; pH 12): 4.54
CC(=O)Oc1ccccc1C(=O)O [acetylsalicylic acid] | −1.30 | 0.03441 ± 0.00987 | – | 1.31 ± 0.01 | -2.73 | –
CNCCC=C1c2ccccc2CCc2ccccc21 [nortriptyline] | 1.04 | −0.01133 ± 0.0021 | 10.05 ± 0.03 | 4.29 ± 0.01 | 1.79 | –
CN(C)CCC=C1c2ccccc2CCc2ccccc21 [amitriptyline] | 1.30 | 0.00004 ± 0.00001 | 9.23 ± 0.08 | 4.68 ± 0.02 | 2.84 | –
O=C(c1ccccc1)c1ccc2n1CCC2C(=O)O (stereo not drawn) [ketorolac] | −2.00 | 0.02127 ± 0.00131 | 3.64 ± 0.06 | 2.9 ± 0.04 | -0.05 | –
COc1ccc(CN(CCN(C)C)c2ccccn2)cc1 [mepyramine] | – | – | 8.71 ± 0.05 | 2.73 ± 0.02 | 1.48 | –
CC(C)NCC(O)COc1cccc2ccccc12 (stereo not drawn) [propranolol] | 0.85 | 0.00202 ± 0.00061 | – | – | – | –
CSc1ccc2c(c1)N(CCC1CCCCN1C)c1ccccc1S2 (stereo not drawn) [thioridazine] | 0.24 | – | 9.25 ± 0.01 | 5.38 ± 0.03 | 3.54 | –
CN1CCN(CCCN2c3ccccc3Sc3ccc(C(F)(F)F)cc32)CC1 [trifluoperazine] | 1.44 | 0.2028 ± 0.00151 | – | 6.14 ± 0.01 | 5.53 | –
CC(C)(C)NCC(O)c1ccc(O)c(CO)c1 (stereo not drawn) [salbutamol] | −1.03 | −0.0103 ± 0.00502 | 9.6 ± 0.01 | 0.3 ± 0.04 | – | Log D7.4 ([4]; pH 7.4): −1.90
OCCOCCN1CCN(C(c2ccccc2)c2ccc(Cl)cc2)CC1 (stereo not drawn) [hydroxyzine] | 0.90 | −0.00058 ± 0.00031 | 7.66 ± 0.04 | 3.73 ± 0.03 | 3.34 | –
CCC1(c2ccccc2)C(=O)NC(=O)NC1=O [phenobarbital] | – | −0.01824 ± 0.00855 | – | – | – | Log BB ([1]; rat, in vivo): −0.12; logD (physchem): 0.98
CNCCc1ccccn1 [betahistine] | −0.30 | 0.03582 ± 0.00587 | 9.84 | 0.49 ± 0.01 | -1.95 | –

Compound | Log BB [1, 5] | k′ ± SD (CEC) [2] | pKa [3, 6] | logP [4] | logD ([4]; pH 7.4) | further results
COc1ccc(C(CN(C)C)C2(O)CCCCC2)cc1 (stereo not drawn) [venlafaxine] | 0.48 | −0.01411 ± 0.00205 | 9.67 ± 0.02 | 2.97 | 0.7 | –
CN(C)CCCN1c2ccccc2CCc2ccccc21 [imipramine] | 1.30 | – | – | – | – | –
C=C[C@H]1C[N@@]2CC[C@H]1C[C@@H]2[C@@H](O)c1ccnc2ccc(OC)cc12 [quinidine] | 0.33 | 0.0034 ± 0.0004 | – | – | – | –
CCC1(C2=CCCCC2)C(=O)NC(=O)NC1=O [cyclobarbital] | – | 0.00186 ± 0.00088 | – | – | – | Log BB ([1]; rat, in vivo): −0.30; logD (physchem): 1.16
COc1ccc2c3c1O[C@H]1C[C@@H](O)C=C[C@@]31CCN(C)C2 [galanthamine] | – | – | – | – | – | Log BB ([1]; rat, in vivo): 0.00; logP (physchem): 1.15; logD (physchem): 0.18
CC(C)NCC(O)COc1cccc2[nH]ccc12 (stereo not drawn) [pindolol] | 0.30 | – | – | – | – | pKa [3]: 9.62 ± 0.07
COc1ccc2c3c1O[C@H]1[C@@H](O)C=C[C@H]4[C@@H](C2)N(C)CC[C@@]341 [codeine] | – | −0.01188 ± 0.00888 | – | – | – | Log BB ([1]; rat, in vivo): 0.55; logP (physchem): 1.14 ± 0.01; logD (physchem): 0.26
O=C(O)Cc1ccccc1Nc1c(Cl)cccc1Cl [diclofenac] | −1.70 | 0.00802 ± 0.0032 | – | 4.33 ± 0.01 | 1.26 | –
OCCN1CCN(CCCN2c3ccccc3Sc3ccc(C(F)(F)F)cc32)CC1 [fluphenazine] | 1.51 | 0.111 ± 0.00192 | 7.79 ± 0.07 | 5.12 ± 0.06 | 4.58 | –
COc1ccc2c(c1)c(CC(=O)O)c(C)n2C(=O)c1ccc(Cl)cc1 [indomethacin] | −1.26 | 0.01869 ± 0.00624 | – | 6.31 ± 0.12 | 3.92 | –
COc1ccc2cc([C@H](C)C(=O)O)ccc2c1 [naproxen] | −1.70 | 0.0105 ± 0.0046 | – | – | – | –
CN(C)CCc1c[nH]c2ccc(C[C@H]3COC(=O)N3)cc12 [zolmitriptan] | −1.40 | −0.00882 ± 0.00356 | 9.6 ± 0.05 | 1.19 ± 0.01 | -1.01 | –
O=C(O)c1ccccc1O [salicylic acid] | – | 0.02255 ± 0.00676 | – | 2.31 ± 0.01 | -0.98 | –
O=C1CC2(CCCC2)CC(=O)N1CCCCN1CCN(c2ncccn2)CC1 [buspirone] | – | – | 7.62 | – | – | –
O=c1n(CCCN2CCN(c3cccc(Cl)c3)CC2)nc2ccccn12 [trazodone] | 0.30 | −0.0108 ± 0.00292 | 6.83 ± 0.04 | 2.98 | 2.88 | –
CNC(=C[N+](=O)[O-])NCCSCc1ccc(CN(C)C)o1 [ranitidine] | −1.23 | −0.00256 ± 0.00041 | 8.43 ± 0.01 | 0.34 ± 0.02 | -0.75 | –
Cc1ccc(/C(=C\CN2CCCC2)c2ccccn2)cc1 [triprolidine] | 0.78 | 0.01006 ± 0.00233 | 9.39 ± 0.06 | 3.87 ± 0.01 | – | Log D7.4 ([4]; pH 7.4): 1.88
C[C@H]1COc2c(N3CCN(C)CC3)c(F)cc3c(=O)c(C(=O)O)cn1c23 [levofloxacin] | −0.70 | – | – | 0.82 ± 0.01 | 0.77 | –
CCCCC1C(=O)N(c2ccccc2)N(c2ccccc2)C1=O [phenylbutazone] | −0.52 | 0.00083 ± 0.00015 | – | – | – | –
CNCCCN1c2ccccc2CCc2ccccc21 [desipramine] | 1.20 | −0.01523 ± 0.00343 | – | – | – | –
CN(C)C(=O)C(CCN1CCC(O)(c2ccc(Cl)cc2)CC1)(c1ccccc1)c1ccccc1 [loperamide] | 0.70 | 0.0147 ± 0.00102 | – | – | – | logD (physchem): 3.21
CC(C)NCC(O)COc1ccc(CC(N)=O)cc1 (stereo not drawn) [atenolol] | – | 0.00183 ± 0.00051 | – | – | – | –
O=C(CCCN1CCC(O)(c2ccc(Cl)cc2)CC1)c1ccc(F)cc1 [haloperidol] | – | −0.00906 ± 0.00138 | 8.66 ± 0.08 | 4.37 ± 0.08 | 3.18 | –
Cc1nc2n(c(=O)c1CCN1CCC(c3noc4cc(F)ccc34)CC1)CCCC2 [risperidone] | – | 0.00698 ± 0.00377 | – | 3.09 ± 0.03 | – | –
Clc1cccc(Cl)c1N=C1NCCN1 [clonidine] | 0.11 | 0.00321 ± 0.00046 | – | – | – | pKa [3]: 8.12 ± 0.01
